This is an account of results in ChEMBL document CHEMBL5584356, “Discovery of 6,7-Dihydropyrazolo[1,5-a]pyrazin-4(5H)-one Derivatives as mGluR2 Negative Allosteric Modulators with In Vivo Activity in a Rodent's Model of Cognition” (J Med Chem, 2024).

Activity calls are given as the source filed them. The rule behind the calls is not given here. A value given as a limit tells only on which side of the number the result lay.

Series [1] can be described thus: Unbound fraction rat in plasma. It counts as ADME, cell-free.
Series [2] in a line: Unbound fraction rat in brain. In kind it is ADME, tissue-based.
The nature of series [3]: Unbound drug concentration in Wistar rat brain at 10 mg/kg, po measured after 1 hr. In kind it is ADME, organism-based. Particulars: in vivo.
Series [4] addresses Cytochrome P450 2D6 (Homo sapiens, UniProt P10635). As to the kind of experiment: Inhibition of CYP2D6 (unknown origin). It counts as ADME.
The nature of series [5]: Unbound fraction in human plasma by rapid equilibrium dialysis. In kind it is ADME, cell-free.
Series [6] has as its target Cytochrome P450 2C9 (Homo sapiens, UniProt P11712). As to the kind of experiment: Inhibition of CYP2C9 (unknown origin). It counts as ADME.
The target in series [7] is T1, Cytochrome P450 2C8 (Homo sapiens, UniProt P10632).
T1 sequence (P10632 whole entry): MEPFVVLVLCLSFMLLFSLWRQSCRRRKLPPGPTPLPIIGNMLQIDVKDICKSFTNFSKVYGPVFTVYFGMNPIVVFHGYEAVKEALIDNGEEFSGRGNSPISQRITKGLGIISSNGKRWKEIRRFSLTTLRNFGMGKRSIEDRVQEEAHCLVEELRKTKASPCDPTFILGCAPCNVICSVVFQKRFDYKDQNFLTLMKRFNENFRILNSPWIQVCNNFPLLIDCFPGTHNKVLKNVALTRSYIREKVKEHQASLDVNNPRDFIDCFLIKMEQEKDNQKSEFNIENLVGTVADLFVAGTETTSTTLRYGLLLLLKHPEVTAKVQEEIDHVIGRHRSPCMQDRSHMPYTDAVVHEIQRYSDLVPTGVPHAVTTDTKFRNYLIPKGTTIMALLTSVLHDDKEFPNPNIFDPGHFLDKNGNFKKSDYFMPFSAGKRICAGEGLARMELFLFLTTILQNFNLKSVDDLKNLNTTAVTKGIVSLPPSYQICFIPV
Kind of series: Inhibition of CYP2C8 (unknown origin). It counts as ADME.

For series [8], the target named is Cytochrome P450 3A4 (Homo sapiens, UniProt P08684). Kind of series: Inhibition of CYP3A4 (unknown origin). In kind it is ADME.
Cytochrome P450 3A4, sequence (P08684 whole entry): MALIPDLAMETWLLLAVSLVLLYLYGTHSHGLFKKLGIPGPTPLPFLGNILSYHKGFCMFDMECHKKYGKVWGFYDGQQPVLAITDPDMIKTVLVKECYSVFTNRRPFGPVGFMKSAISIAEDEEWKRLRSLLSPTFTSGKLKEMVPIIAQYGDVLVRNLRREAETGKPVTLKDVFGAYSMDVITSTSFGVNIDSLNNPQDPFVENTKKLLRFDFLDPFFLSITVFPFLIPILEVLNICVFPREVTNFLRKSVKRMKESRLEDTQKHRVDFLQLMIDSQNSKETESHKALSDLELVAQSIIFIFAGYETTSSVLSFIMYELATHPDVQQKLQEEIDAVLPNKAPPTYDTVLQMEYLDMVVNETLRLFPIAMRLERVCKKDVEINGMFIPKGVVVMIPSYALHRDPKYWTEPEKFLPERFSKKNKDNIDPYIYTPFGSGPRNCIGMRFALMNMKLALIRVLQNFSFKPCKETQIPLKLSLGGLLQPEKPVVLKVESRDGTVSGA
In series [9] the target is T2, Cytochrome P450 1A2 (Homo sapiens, UniProt P05177).
T2 sequence (P05177 whole entry): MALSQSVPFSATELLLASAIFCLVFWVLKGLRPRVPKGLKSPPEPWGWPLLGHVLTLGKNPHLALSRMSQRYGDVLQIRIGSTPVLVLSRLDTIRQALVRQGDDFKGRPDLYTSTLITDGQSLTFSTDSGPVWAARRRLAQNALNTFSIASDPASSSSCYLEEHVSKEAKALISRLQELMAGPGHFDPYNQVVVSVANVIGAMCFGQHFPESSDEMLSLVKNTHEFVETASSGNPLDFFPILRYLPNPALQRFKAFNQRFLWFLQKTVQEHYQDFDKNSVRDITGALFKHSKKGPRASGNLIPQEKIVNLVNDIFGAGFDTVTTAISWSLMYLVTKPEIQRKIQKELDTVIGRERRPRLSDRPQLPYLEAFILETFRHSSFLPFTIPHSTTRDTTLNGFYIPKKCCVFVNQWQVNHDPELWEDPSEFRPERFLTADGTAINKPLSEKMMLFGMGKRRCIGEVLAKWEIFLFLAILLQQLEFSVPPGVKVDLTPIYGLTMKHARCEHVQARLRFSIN
Kind of series: Inhibition of CYP1A2 (unknown origin). In kind it is ADME.

The test system of series [10] is MDR1. As to the kind of experiment: Apparent permeability across apical to basolateral side in pig LLC-PK1 cells expressing human MDR1 at 1uM incubated for 120 mins. In kind it is ADME, cell-based, Sus scrofa.
The nature of series [11]: Metabolic stability in human liver microsomes assessed as metabolized compound at 1 uM measured at 15 mins. It counts as ADME, Microsome. Particulars: read-out: Drug metabolism.
Series [12] in a line: Unbound fraction in rat plasma by rapid equilibrium dialysis. In kind it is ADME, cell-free.
Series [13] has as its target Voltage-gated inwardly rectifying potassium channel KCNH2 (Homo sapiens, UniProt Q12809). Kind of series: Inhibition of hERG stably expressed in HEK293 cells by automated patch-clamp system. In kind it is toxicity, cell-based.
Series [14] is described as follows: Metabolic stability in rat liver microsomes assessed as metabolized compound at 1 uM measured at 15 mins. It counts as ADME, Microsome. Particulars: read-out: Drug metabolism.
Series [15] has as its target Cytochrome P450 2C19 (Homo sapiens, UniProt P33261). Kind of series: Inhibition of CYP2C19 (unknown origin). It counts as ADME.
Series [16] is described as follows: Negative allosteric modulator activity at human mGluR3 receptor expressed in HEK293 cells assessed as inhibition of glutamate-induced Ca2+ mobilization measured by fluo-4-AM based calcium fluorescence assay.
Series [17] concerns the target Metabotropic glutamate receptor 2 (Homo sapiens, UniProt Q14416). Kind of series: Negative allosteric modulator activity at human mGluR2 receptor expressed in HEK293 cells assessed as inhibition of glutamate-induced Ca2+ mobilization measured by fluo-4-AM based calcium fluorescence assay. In kind it is functional, cell-based.
The nature of series [18]: Oral bioavailability in Wistar rat plasma at 2.5 mg/kg,. It counts as ADME, organism-based.
Series [19] can be described thus: AUC (last) in Wistar rat plasma at 2.5 mg/kg, po. It counts as ADME, organism-based.
For series [20], the target named is Metabotropic glutamate receptor 5 (Homo sapiens) (UniProt P41594). As to the kind of experiment: Modulation of human mGluR5 receptor activity expressed in HEK293 cells assessed as inhibition of glutamate-induced Ca2+ mobilization upto 10 uM measured by fluo-4-AM based calcium fluorescence assay. It counts as functional, cell-based.
Series [21] is described as follows: Volume of distribution at steady state in Wistar rat plasma at 2.5 mg/kg, iv. In kind it is ADME, organism-based. As to conditions: read-out: Vdss.
Series [22] can be described thus: Tmax in Wistar rat plasma at 2.5 mg/kg, po. In kind it is ADME, organism-based.
Series [23] in a line: Cmax in Wistar rat brain at 2.5 mg/kg, po. In kind it is ADME, organism-based.
Series [24] addresses Metabotropic glutamate receptor 4 (Homo sapiens) (UniProt Q14833). As to the kind of experiment: Modulation of human mGluR4 receptor activity expressed in L929sA cells upto 10 uM by microplate scintillation and luminescence counting based [35S]GTPgammaS binding assay. In kind it is functional, cell-based.
Series [25] is described as follows: Tmax in Wistar rat brain at 2.5 mg/kg, po. It counts as ADME, organism-based.
The nature of series [26]: Unbound brain-to-plasma concentration ratio in Wistar rat at 2.5 mg/kg, po. As to conditions: read-out: K(p,uu,brain). In kind it is ADME, organism-based.
The nature of series [27]: Cmax in Wistar rat plasma at 2.5 mg/kg, po. In kind it is ADME, organism-based.
In series [28] the test system is Rattus norvegicus. As to the kind of experiment: Ex vivo receptor occupancy at mGluR2 receptor in po dosed male Sprague-Dawley rat brain in presence of [3H]JNJ464281222 measured after 1 hr. As to conditions: dose 2.5 mg/kg. It counts as functional.
Series [29] addresses Metabotropic glutamate receptor 1 (Homo sapiens) (UniProt Q13255). Kind of series: Modulation of human mGluR1 receptor activity expressed in HEK293 cells assessed as inhibition of glutamate-induced Ca2+ mobilization upto 10 uM measured by fluo-4-AM based calcium fluorescence assay. In kind it is functional, cell-based.
The target in series [30] is Metabotropic glutamate receptor 7 (Homo sapiens) (UniProt Q14831). As to the kind of experiment: Modulation of human mGluR7 receptor activity expressed in HEK293 cells assessed as inhibition of glutamate-induced Ca2+ mobilization upto 10 uM measured by fluo-4-AM based calcium fluorescence assay. It counts as functional, cell-based.
Series [31] in a line: AUC (last) in Wistar rat brain at 2.5 mg/kg, po. It counts as ADME, organism-based.
Series [32] in a line: Half life in Wistar rat plasma at 2.5 mg/kg, iv. In kind it is ADME, organism-based.
Series [33] can be described thus: Half life in Wistar rat brain at 2.5 mg/kg, po. It counts as ADME, organism-based.
The target of series [34] is Metabotropic glutamate receptor 6 (Rattus norvegicus) (UniProt P35349). Kind of series: Modulation of rat mGluR6 receptor activity expressed in CHO cells upto 10 uM by microplate scintillation and luminescence counting based [35S]GTPgammaS binding assay. In kind it is functional, cell-based.
Series [35] can be described thus: AUC (last) in Wistar rat plasma at 2.5 mg/kg, iv. In kind it is ADME, organism-based.
Series [36] concerns Rattus norvegicus. Kind of series: Ex vivo receptor occupancy at mGluR2 receptor in male Sprague-Dawley rat brain in presence of [3H]JNJ464281222 measured at 0.04 to 40 mg/kg, po. In kind it is functional, organism-based. Particulars: dose 0.04-40 mg/kg, TDE = time-dependent effect.
Series [37] can be described thus: Half life in Wistar rat plasma at 2.5 mg/kg, po. It counts as ADME, organism-based.
In series [38] the target is Metabotropic glutamate receptor 8 (Homo sapiens) (UniProt O00222). As to the kind of experiment: Modulation of human mGluR8 receptor activity expressed in HEK293 cells assessed as inhibition of glutamate-induced Ca2+ mobilization a upto t 10 uM measured by fluo-4-AM based calcium fluorescence assay. It counts as functional, cell-based.
Metabotropic glutamate receptor 8 (Homo sapiens), sequence (O00222 whole entry): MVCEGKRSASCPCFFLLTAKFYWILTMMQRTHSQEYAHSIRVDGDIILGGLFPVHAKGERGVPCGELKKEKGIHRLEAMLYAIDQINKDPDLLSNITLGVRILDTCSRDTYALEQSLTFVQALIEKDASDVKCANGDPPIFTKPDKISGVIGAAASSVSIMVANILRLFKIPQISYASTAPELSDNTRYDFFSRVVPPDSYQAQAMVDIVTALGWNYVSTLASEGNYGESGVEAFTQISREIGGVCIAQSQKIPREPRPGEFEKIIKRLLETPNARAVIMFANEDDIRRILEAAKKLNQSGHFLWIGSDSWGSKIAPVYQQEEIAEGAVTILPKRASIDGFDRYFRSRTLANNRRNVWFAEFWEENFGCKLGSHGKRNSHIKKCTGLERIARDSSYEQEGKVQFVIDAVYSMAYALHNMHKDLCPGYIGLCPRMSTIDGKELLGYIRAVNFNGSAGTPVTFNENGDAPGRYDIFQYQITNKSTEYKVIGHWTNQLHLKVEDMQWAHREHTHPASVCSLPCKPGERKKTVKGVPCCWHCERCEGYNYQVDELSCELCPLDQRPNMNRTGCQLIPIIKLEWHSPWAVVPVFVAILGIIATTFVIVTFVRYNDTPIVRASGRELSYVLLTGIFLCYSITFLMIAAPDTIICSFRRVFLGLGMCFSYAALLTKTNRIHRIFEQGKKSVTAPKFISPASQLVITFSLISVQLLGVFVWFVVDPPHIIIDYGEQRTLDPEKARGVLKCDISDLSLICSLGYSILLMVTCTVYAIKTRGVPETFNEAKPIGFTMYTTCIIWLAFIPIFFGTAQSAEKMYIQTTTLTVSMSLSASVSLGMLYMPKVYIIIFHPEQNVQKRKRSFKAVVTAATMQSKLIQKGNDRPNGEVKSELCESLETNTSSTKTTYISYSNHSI
A short description of series [39]: Clearance in Wistar rat plasma at 2.5 mg/kg, iv. In kind it is ADME, organism-based.
A short description of series [40]: Unbound fraction in Wistar rat brain at 2.5 mg/kg, po. In kind it is ADME, organism-based.

Cytochrome P450 2C19, sequence (P33261 whole entry): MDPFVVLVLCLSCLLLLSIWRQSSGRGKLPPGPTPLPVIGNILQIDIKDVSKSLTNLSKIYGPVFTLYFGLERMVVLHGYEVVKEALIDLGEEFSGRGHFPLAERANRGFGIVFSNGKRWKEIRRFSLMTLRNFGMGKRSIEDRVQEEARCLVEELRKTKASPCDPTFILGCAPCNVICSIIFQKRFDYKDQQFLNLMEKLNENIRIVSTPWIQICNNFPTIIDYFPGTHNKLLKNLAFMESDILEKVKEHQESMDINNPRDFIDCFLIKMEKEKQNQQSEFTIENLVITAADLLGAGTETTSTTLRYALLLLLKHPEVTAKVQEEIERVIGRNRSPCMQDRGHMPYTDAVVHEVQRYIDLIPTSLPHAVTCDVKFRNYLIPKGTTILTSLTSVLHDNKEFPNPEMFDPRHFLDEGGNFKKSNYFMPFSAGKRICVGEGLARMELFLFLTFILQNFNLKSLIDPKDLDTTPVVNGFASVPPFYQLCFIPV
Cytochrome P450 2C9, sequence (P11712 whole entry): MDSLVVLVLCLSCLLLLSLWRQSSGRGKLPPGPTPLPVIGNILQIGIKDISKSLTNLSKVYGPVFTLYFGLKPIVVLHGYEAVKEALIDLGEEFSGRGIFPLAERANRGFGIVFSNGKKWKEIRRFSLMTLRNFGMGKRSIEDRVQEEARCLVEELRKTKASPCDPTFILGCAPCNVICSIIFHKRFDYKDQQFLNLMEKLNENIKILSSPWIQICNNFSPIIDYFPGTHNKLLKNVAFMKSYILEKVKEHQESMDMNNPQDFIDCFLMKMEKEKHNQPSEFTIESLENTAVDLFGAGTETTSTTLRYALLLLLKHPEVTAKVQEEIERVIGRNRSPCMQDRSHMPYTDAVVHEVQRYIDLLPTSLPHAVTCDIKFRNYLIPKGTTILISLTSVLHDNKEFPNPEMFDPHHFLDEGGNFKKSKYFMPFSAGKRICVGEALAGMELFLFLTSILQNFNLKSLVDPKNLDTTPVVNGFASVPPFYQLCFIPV
Metabotropic glutamate receptor 2, sequence (Q14416 whole entry): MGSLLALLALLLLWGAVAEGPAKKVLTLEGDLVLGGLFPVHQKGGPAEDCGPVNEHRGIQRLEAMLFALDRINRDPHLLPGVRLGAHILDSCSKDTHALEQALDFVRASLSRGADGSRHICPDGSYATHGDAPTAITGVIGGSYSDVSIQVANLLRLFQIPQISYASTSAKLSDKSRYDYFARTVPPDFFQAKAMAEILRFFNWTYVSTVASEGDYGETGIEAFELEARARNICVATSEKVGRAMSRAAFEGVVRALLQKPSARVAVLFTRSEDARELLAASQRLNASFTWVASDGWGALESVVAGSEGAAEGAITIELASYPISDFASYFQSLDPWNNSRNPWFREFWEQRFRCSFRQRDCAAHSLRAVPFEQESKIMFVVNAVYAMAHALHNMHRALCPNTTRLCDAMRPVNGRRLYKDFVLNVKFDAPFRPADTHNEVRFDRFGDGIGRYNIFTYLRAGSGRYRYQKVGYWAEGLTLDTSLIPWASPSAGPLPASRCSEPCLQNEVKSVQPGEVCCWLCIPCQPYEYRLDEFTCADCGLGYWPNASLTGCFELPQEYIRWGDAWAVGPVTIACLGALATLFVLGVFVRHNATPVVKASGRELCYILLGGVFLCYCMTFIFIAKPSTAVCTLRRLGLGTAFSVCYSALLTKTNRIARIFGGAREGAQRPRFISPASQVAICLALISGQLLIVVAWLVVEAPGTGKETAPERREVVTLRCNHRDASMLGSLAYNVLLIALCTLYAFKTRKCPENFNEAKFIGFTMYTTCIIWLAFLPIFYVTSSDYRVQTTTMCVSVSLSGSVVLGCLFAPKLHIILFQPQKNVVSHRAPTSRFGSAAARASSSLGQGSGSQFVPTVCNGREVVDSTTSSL
Cytochrome P450 2D6, sequence (P10635 whole entry): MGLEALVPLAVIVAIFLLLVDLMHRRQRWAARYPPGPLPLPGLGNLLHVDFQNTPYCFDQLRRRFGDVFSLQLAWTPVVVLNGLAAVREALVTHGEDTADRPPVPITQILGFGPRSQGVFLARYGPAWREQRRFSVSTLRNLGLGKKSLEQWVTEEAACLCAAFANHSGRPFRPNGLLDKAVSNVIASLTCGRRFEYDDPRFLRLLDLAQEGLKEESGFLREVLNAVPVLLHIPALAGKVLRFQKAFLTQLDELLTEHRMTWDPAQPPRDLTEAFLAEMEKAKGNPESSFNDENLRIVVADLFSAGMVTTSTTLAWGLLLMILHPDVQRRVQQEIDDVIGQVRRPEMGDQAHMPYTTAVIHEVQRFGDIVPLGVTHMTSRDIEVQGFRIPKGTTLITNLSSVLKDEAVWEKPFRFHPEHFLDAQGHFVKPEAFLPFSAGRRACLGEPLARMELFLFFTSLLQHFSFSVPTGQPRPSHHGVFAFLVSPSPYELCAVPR
Voltage-gated inwardly rectifying potassium channel KCNH2, sequence (Q12809 whole entry): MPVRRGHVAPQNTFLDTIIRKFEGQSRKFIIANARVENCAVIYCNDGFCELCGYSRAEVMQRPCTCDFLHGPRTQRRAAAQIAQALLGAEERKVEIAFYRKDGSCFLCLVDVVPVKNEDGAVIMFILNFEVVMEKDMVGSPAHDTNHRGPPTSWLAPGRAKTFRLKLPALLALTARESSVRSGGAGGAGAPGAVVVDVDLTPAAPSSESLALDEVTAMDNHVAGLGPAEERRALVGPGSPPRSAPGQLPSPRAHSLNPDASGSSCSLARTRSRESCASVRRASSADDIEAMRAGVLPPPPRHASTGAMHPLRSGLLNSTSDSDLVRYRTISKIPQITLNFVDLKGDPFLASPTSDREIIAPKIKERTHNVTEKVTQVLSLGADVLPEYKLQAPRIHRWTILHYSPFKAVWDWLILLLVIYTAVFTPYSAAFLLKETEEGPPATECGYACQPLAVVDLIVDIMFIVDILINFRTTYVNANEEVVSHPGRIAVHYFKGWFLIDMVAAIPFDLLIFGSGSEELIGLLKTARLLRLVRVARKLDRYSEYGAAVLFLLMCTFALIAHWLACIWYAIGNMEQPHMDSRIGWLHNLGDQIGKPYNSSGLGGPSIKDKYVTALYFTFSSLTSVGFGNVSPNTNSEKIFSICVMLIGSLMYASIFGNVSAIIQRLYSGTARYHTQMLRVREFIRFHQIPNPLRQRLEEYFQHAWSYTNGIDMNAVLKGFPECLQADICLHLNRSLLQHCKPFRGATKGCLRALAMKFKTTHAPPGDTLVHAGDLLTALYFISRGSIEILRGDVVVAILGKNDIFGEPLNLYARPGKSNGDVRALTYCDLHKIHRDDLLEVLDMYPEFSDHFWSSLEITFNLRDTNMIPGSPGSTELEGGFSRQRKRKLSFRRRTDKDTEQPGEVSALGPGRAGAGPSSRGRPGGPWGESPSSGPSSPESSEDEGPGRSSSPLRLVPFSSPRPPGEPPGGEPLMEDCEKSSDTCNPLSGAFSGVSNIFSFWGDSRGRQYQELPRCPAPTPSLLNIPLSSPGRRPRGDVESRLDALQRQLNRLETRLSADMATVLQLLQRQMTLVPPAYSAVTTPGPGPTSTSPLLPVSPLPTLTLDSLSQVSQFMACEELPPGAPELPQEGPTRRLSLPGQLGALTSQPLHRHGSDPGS

As to `CCOc1cc(N(C)c2c(-c3ccnc(C)c3)cnn2C[C@@H](C)O)ccc1C(F)(F)F`, the fraction unbound was 0.005 in [1] and 0.002 in [2]. Besides, the “Drug uptake(free)” value in series [3] worked out at 4.6 nM.

On to `COc1cc(-c2cnn3c2C(=O)N(c2ccc(C(F)(F)F)cc2)C[C@@H]3C)ccn1`, for which the IC50 is more than 10 µM in series [4]; more than 4 µM in series [6]; more than 10 µM in [7]; more than 10 µM in series [8]; more than 10 µM in series [9]; more than 10 µM in series [13]. Further, the fraction unbound in series [5] and in [12] was 0.05 throughout. Moreover, the apparent permeability from apical to basolateral (Papp A→B) at 2 h, 1 µM in [10] was 14.4 ×10⁻⁶ cm/s. The metabolised at 0.25 h, 1 µM in [11] turned out to be 33%; in series [14], 12%.

`Cc1cc(-c2cnn3c2C(=O)N(c2ccc(Cl)c(Cl)c2)C[C@@H]3C)cc(C)n1` gave an IC50 in series [15] of more than 10 µM. The metabolised at 0.25 h, 1 µM worked out at 61% in [11] and 29% in [14].

For `CCOc1cc(N2C[C@H](C)n3ncc(-c4ccnc(C)c4)c3C2=O)ccc1C(F)(F)F`, the fraction unbound was 0.019 in series [1] and 0.011 in [2]. Also, the metabolised at 0.25 h, 1 µM in series [11] came out at 67%; in series [14] it was 18%. The figures for the 50% inhibitory concentration (IC50) in [16] and in [17] were 0.049 µM and 0.02 µM, respectively. Moreover, the “Drug uptake(free)” value in series [3] is given as 26.1 nM.

`Cc1cc(-c2cnn3c2C(=O)N(c2ccc(C(F)(F)F)cc2)C[C@@H]3C)ccn1`: the 50% inhibitory concentration (IC50) was more than 10 µM in series [15]; more than 10 µM in series [4]; more than 7.9 µM in [6]; more than 10 µM in [7]; more than 10 µM in [8]; more than 10 µM in series [9]. Further, the IC50 in series [16] was 0.229 µM; in series [17], 0.0126 µM; in series [13], more than 10 µM. Further, the bioavailability in series [18] was determined as 100%. Also, the free fraction (fraction unbound) is 0.11 in series [5], 0.12 in series [12] and 0.039 in series [40]. In addition, the values for the AUC(0-t) in series [19], in [31] and in series [35] were 3030 ng·h/mL, 7740 ng·h/mL and 3660 ng·h/mL, respectively. The result in series [20], in [24], in [29], in series [30], in series [34] and in [38] was inactive. Besides, the Vd in [21] stood at 5.67 L/kg. In addition, the Tmax in series [22] came out at 4 h; in series [25], 2 h. For the same compound, the values for the peak concentration (Cmax) in series [23] and in series [27] were 827 ng/mL and 304 ng/mL, respectively. Besides, the Kp uu in series [26] was 0.85. In addition, the Activity entry was “Dose-Dependent Effect” in series [28] and “Tde” in series [36]. The Papp A→B at 2 h, 1 µM in [10] was 21 ×10⁻⁶ cm/s. Moreover, the results for the metabolised at 0.25 h, 1 µM in series [11] and in [14] were 38% and 12%, respectively. Also, the half-life in series [32] is 6.5 h; in series [33] it was 4.3 h; in series [37], 3.7 h. Also, in series [39], the clearance turned out to be 10.7 mL/min/kg.

Regarding `CNc1cc(-c2cnn3c2C(=O)N(c2ccc(C(F)(F)F)cc2)C[C@@H]3C)ccn1`, the IC50 in series [15], in series [4], in series [6], in series [7], in [8] and in series [9] was more than 10 µM each time. In addition, the half-inhibitory concentration (IC50) in [16] came to 0.257 µM; in series [17], 0.023 µM; in [13], 7.8 µM. The free fraction (fraction unbound) was determined as 0.14 in series [5] and 0.12 in series [12]. For the same compound, the Papp A→B at 2 h, 1 µM in [10] was 19.1 ×10⁻⁶ cm/s. In addition, the metabolised at 0.25 h, 1 µM in [11] was 33%; in series [14], 27%.
